In article PMC12871931, “The importin‐alpha superfamily engages in ethylene signaling by shuttling [sequence] INSENSITIVE 2 from the endoplasmic reticulum to the nucleus” (The Febs Journal, 2025):

Columns and labels:
[1] = test system: triple impα loss‐of‐function mutant seedlings; assay: Triple response assay, triple impα mutants; assay type: in vivo, Arabidopsis thaliana; details: 0.1 μM ACC, at least 20 seedlings per condition
Experimental: To gain further insights into the role of the IMPα superfamily for ethylene signaling, we studied multiple higher order IMPα loss‐of‐function mutants (Fig. 2). […] To check for potential differences in ethylene sensitivity, we supplemented the experiments from Fig. 2B with 0.1 and 1 μM ACC (Fig. 2C). […] These findings indicate that the mutation of three IMPα isoforms leads to diminished sensitivity in ethylene perception, supporting the pivotal role of the IMPα superfamily in ethylene signaling. However, no differences in ethylene sensing were observed among the various triple mutants, further reinforcing the hypothesis of IMPα redundancy in EIN2 transport. The deletion of an excessive number of IMPα isoforms is likely to have detrimental effects on regular plant growth and development, which has already been observed in the triple mutants (impα‐1;impα‐2;impα‐3). Due to the pivotal role of the IMPα‐IMPβ machinery in the nuclear transport of a large number of cargo proteins, we adopted an alternative strategy to investigate the role of IMPα proteins in plant ethylene signal transduction by testing their physical interaction with the ethylene key regulator EIN2.
(§1) Around 10 mg of seeds was filled into a 2‐mL reaction tube and put into a desiccator with the lid opened. Additionally, a beaker with 100 mL 37% perchloric acid was put into the desiccator. […]

[2] = test system: Col‐0 (wild‐type) seedlings; assay: Triple response assay, wild‐type; assay type: in vivo, Arabidopsis thaliana; details: dark‐grown, vs w/o ACC
Experimental: Around 10 mg of seeds was filled into a 2‐mL reaction tube and put into a desiccator with the lid opened. Additionally, a beaker with 100 mL 37% perchloric acid was put into the desiccator. 3 mL of 37% hydrochloric acid was pipetted into the beaker to start the reaction, and the lid of the desiccator was closed immediately. The seeds were incubated for 1 h. After the incubation time, the lid of the desiccator was opened slightly, while the tubes were incubated for 20 more minutes to wait for the gas to evaporate. 1 mL of sterile water was added to the reaction tubes, and the seeds were stratified by storage at 4 °C for 3 days before planting (otherwise they can be planted directly after this procedure). Before starting to plant the seeds, any material (e.g., pots and tubs) was sterilized with 70% ethanol. A mixture of soil, vermiculite, and sand (ratio 8:1:1) was prepared, and water was added in the right proportion to make the soil mix soggy but not mushy. The soil mix was sterilized by heating it in the microwave at 800 W for about 10 min. Pots were filled with the sterilized soil mix afterwards. Around 100 μL of 1% agarose in tap water was added to the reaction tubes containing the sterilized seedlings for better pipetting precision, and the seeds were planted into the soil mix. The growth of A. thaliana was performed at 22 °C, 60% humidity, and 100–120 μEinstein light intensity. The plants were watered only from the bottom every 2–3 days. After 5 weeks, the plants were big enough to grow in their own pots instead of several plants being grown crowded in one pot.
The triple response media for the agar plates was prepared by mixing 0.43% (w/v) of Murashige and Skoog (MS) salts and 1% (w/v) sucrose. The pH is adjusted to 6.0 before adding 0.7% (w/v) plant agar to the media and autoclaving it at 121 °C for 30 min. […] The seedlings were documented, and the length of the hypocotyl was analyzed using a binocular microscope and the software Motion 3.0, respectively. […]

[3] = test system: ein2‐1 loss‐of‐function mutant seedlings; assay: Triple response assay, ethylene‐insensitive mutant; assay type: in vivo, Arabidopsis thaliana; details: ein2‐1, dark‐grown, ACC in agar vs w/o ACC
Text: In the presence of ethylene, dark‐grown seedlings display the characteristic phenotypic responses known as triple response. We hypothesized that nucleocytoplasmic transport and nuclear import of the EIN2 cytosolic part (CEND), which bridges ethylene signal transduction from the ER membrane to the nucleus, are mediated by the IMPα‐IMPβ transport machinery. This hypothesis is supported by the previously identified NLS motif in the EIN2 C terminus. To investigate whether any of the IMPα isoforms are implicated in ethylene signaling, A. thaliana Col‐0 (wild‐type; positive control), single loss‐of‐function mutants of the IMPα isoforms (impα1‐impα9) obtained from the Nottingham Arabidopsis Stock Centre (NASC), and ethylene‐insensitive mutant ein2‐1 (negative control) were grown in the dark in the presence of the ethylene precursor 1‐aminocyclopropane‐1‐carboxylate (ACC) and subsequently analyzed for their triple response. […] The findings on the single impα mutants indicate that nucleocytoplasmic transport and nuclear import of EIN2 CEND cannot be attributed to a single IMPα isoform, possibly because of functional redundancy among the IMPα isoforms.
as §1

IMPα7_ΔIBB = target: T1, IMPα7_ΔIBB (Arabidopsis thaliana, UniProt Q9M9X7); assay: biochemical; assay type: binding
T1 construct: hexa-His (TEV site between protein and tag) (C); made in house; host or cells: E. coli BL21gold
Text: Genes encoding several isoforms of the IMPα superfamily were either isolated from Arabidopsis thaliana (IMPα1, ‐2, ‐3, ‐4, ‐8) or synthetically produced by GenScript (IMPα5, ‐6, ‐7, ‐9) and cloned into the pETEV21a vector (modified version of the pET21a vector with an additional TEV cleavage site between the GOI and the His‐tag), which contains a C‐terminal hexa‐His‐tag. Only IMPα5 was additionally cloned into the pETEV16b vector (modified version of the pET16b vector with an additional TEV cleavage site between the GOI and the His‐tag), which contains an N‐terminal deca‐His‐tag (see Table S2 for primer list). The AtEIN2C^1215–1281 gene was cloned into the pETEV16b vector and additionally contained a GB1‐domain at the N terminus to enhance solubility. Most of the proteins were expressed in the E. coli BL21pRARE strain, while IMPα7, IMPα8, and ΔIBB_IMPα1 (lack of the IBB domain) were expressed using the E. coli BL21gold strain. The bacterial cultures were adjusted to an initial OD600 of 0.1 and grown in 2YT media at 37 °C until an OD600 between 0.6 and 0.8 was reached. Subsequently, the protein expression was induced with 0.5 mM IPTG. After two hours, the cells were harvested via centrifugation at 10,000 g for 10 min. IMPα5, IMPα6, IMPα7, IMPα8, ΔIBB_IMPα1, and GB1_AtEIN2C^1215–1281 were expressed at 16 °C overnight with the addition of 2% (v/v) ethanol. […]

EIN2C^479–1294 = assay: In planta FLIM‐FRET, EIN2C^479–1294‐CER donor, IMPα‐YFP acceptors; assay type: cell-based, Arabidopsis thaliana; details: mean, EIN2C^479–1294‐CER donor / IMPα‐YFP acceptor, N. benthamiana epidermal leaf cells
Text: To further investigate the interaction between members of the IMPα superfamily and EIN2 in planta, we used in vivo fluorescence lifetime microscopy and Förster's resonance energy transfer (FLIM‐FRET). Accordingly, the C‐terminal part of EIN2 (EIN2C^479–1294) was fused to the fluorescent protein Cerulean (CER), serving as a donor, and the IMPα isoforms (IMPα1‐7) were fused to YELLOW FL[…] (YFP), serving as acceptors.
A modified version of a previously described procedure was used for the transient transformation of N. benthamiana. An overnight culture of agrobacteria was inoculated in DYT and incubated at 28°C one day before infiltration. […] For co‐infiltration, bacteria solutions were mixed in equal quantities, and Agrobacterium strain GV3101:p19 expressing the p19 silencing inhibitor was added to each mix. […]
Fluorescence lifetime imaging was performed using a protocol described previously. Fluorescence lifetime was measured at a Zeiss LSM 780 confocal microscope (40× water immersion objective, Zeiss C‐PlanApo, NA 1.2). […] Photons were detected in both donor and acceptor channels simultaneously with Tau‐SPADs (PicoQuant, Berlin, Germany). […] Internal response functions for each laser were determined by measuring the fluorescence decay of quenched Atto425 in saturated KI, using the same hardware settings as for the FRET pair of interest. […]

T1 sequence (Q9M9X7 57-528, stated change not applied): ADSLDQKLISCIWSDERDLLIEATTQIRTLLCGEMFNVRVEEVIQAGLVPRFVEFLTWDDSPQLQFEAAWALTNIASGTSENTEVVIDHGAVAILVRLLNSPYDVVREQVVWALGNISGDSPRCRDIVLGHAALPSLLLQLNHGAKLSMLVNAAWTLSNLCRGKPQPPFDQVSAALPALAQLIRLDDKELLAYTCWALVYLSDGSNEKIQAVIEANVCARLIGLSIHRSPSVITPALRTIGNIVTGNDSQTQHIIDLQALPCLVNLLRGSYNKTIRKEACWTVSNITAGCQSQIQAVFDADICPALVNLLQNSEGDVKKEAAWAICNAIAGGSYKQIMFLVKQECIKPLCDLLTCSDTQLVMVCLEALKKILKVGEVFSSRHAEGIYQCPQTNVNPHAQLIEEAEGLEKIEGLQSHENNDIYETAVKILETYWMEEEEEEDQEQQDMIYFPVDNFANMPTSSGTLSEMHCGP

With `NC1(C(=O)O)CC1` [ACC, 1‐aminocyclopropane‐1‐carboxylic acid] the “reduction in hypocotyl length (maximum among triple mutants)” value [1] was no more than 7.5%, the “reduction in hypocotyl length” value ([2]; Col‐0, 0.1 μM ACC) was 21% and the “reduction in hypocotyl length” value ([2]; Col‐0, 1 μM ACC) was 55.5%. The “reduction in hypocotyl length” value ([2]; Col‐0, 10 μM ACC) was 56.5% and the “decrease in hypocotyl length” value [3] was 10%.
In the case of `CC(C)C[C@H](NC(=O)[C@H](CCCNC(=N)N)NC(=O)[C@H](CCCNC(=N)N)NC(=O)[C@H](CCCCN)NC(=O)[C@H](Cc1ccc(O)cc1)NC(=O)[C@H](CCCNC(=N)N)NC(=O)[C@H](CCCCN)NC(=O)[C@H](CC(C)C)NC(=O)c1ccc2c(c1)C(=O)OC21c2ccc(N(C)C)cc2Oc2cc(N(C)C)ccc21)C(=O)O` [TAMRA‐NOP‐1], the Kd (IMPα7_ΔIBB) is reported as 3 ± 0.3 µM.
Compound “IMPα4: A. thaliana IMPα4 fused to YFP, FRET acceptor” has an FRET efficiency (EIN2C^479–1294) of 4.6%.
